Data from PubChem BioAssay AID1963444 (Molecular Pharmacology Branch, DTP, NCI, 2024).

Test system: HSSY-II complex spheroid growth, percent test/control
Assay: Anticancer human tumor HSSY-II cell line growth inhibition [Asc];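 further: spheroids exposed to drug for 7 days before reading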
Settings: for IC50: curve of first compound; for viability, T/C: stronger effect = lower value
Method in brief: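 Tumor cells were grown as multicellular spheroids with stromal HUVEC and mesenchymal stem cells and treated singly or in combination. Concentrations fell in half-log steps from the clinical Cmax, or from 10 microM where none was known.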

[1] = second compound 0.1 µM, first compound 0.0316 µM
[2] = second compound 0.1 µM, first compound 0.1 µM
[3] = second compound 0.1 µM, first compound 0.316 µM
[4] = second compound 0.1 µM, first compound 1 µM
[5] = second compound 0.1 µM, first compound 3.16 µM
[6] = second compound 0.1 µM, first compound 10 µM
[7] = second compound 0.316 µM, first compound 0.0316 µM
[8] = second compound 0.316 µM, first compound 0.1 µM
[9] = second compound 0.316 µM, first compound 0.316 µM
[10] = second compound 0.316 µM, first compound 1 µM
[11] = second compound 0.316 µM, first compound 3.16 µM
[12] = second compound 0.316 µM, first compound 10 µM
[13] = second compound 1 µM, first compound 0.0316 µM
[14] = second compound 1 µM, first compound 0.1 µM
[15] = second compound 1 µM, first compound 0.316 µM
[16] = second compound 1 µM, first compound 1 µM
[17] = second compound 1 µM, first compound 3.16 µM
[18] = second compound 1 µM, first compound 10 µM
[19] = second compound 3.16 µM, first compound 0.0316 µM
[20] = second compound 3.16 µM, first compound 0.1 µM
[21] = second compound 3.16 µM, first compound 0.316 µM
[22] = second compound 3.16 µM, first compound 1 µM
[23] = second compound 3.16 µM, first compound 3.16 µM
[24] = second compound 3.16 µM, first compound 10 µM
[25] = second compound 10 µM, first compound 0.0316 µM
[26] = second compound 10 µM, first compound 0.1 µM
[27] = second compound 10 µM, first compound 0.316 µM
[28] = second compound 10 µM, first compound 1 µM
[29] = second compound 10 µM, first compound 3.16 µM
[30] = second compound 10 µM, first compound 10 µM

C=C(F)C(=O)N1CCN(c2nc(OCC3CCCN3C)nc3c2CCN(c2cccc4cccc(Cl)c24)C3)CC1CC#N (stereo not given) + Cc1c(S(C)(=O)=O)c(-c2cc(F)cc(N3CCN(c4ccc(NS(=O)(=O)c5ccc(NC(CCN6CCC(C(=O)OCCCP(=O)(O)O)CC6)CSc6ccccc6)c(S(=O)(=O)C(F)(F)F)c5)cc4)CC3)c2)c(-c2ccc(Cl)cc2)n1C(C)C
IC50 (second compound 0.1 µM): 1440 nM | IC50 (second compound 0.316 µM): 1360 nM | IC50 (second compound 1 µM): 1150 nM | IC50 (second compound 3.16 µM): 1030 nM | IC50 (second compound 10 µM): 997 nM | viability, T/C [1]: 106% | viability, T/C [2]: 106% | viability, T/C [3]: 86.7% | viability, T/C [4]: 72.7% | viability, T/C [5]: 0.9% | viability, T/C [6]: 0.13% | viability, T/C [7]: 105% | viability, T/C [8]: 92% | viability, T/C [9]: 84% | viability, T/C [10]: 68% | viability, T/C [11]: 0.59% | viability, T/C [12]: 0.11% | viability, T/C [13]: 98.4% | viability, T/C [14]: 97.3% | viability, T/C [15]: 95.6% | viability, T/C [16]: 57% | viability, T/C [17]: 0.36% | viability, T/C [18]: 0.12% | viability, T/C [19]: 104% | viability, T/C [20]: 98% | viability, T/C [21]: 97% | viability, T/C [22]: 51.6% | viability, T/C [23]: 0.27% | viability, T/C [24]: 0.13% | viability, T/C [25]: 106% | viability, T/C [26]: 113% | viability, T/C [27]: 85.3% | viability, T/C [28]: 55.7% | viability, T/C [29]: 0.4% | viability, T/C [30]: 0.22%

C=CC(=O)N1CCN(c2nc(=O)n(-c3c(C)ccnc3C(C)C)c3nc(-c4c(O)cccc4F)c(F)cc23)C(C)C1 (stereo not given) + Cc1c(S(C)(=O)=O)c(-c2cc(F)cc(N3CCN(c4ccc(NS(=O)(=O)c5ccc(NC(CCN6CCC(C(=O)OCCCP(=O)(O)O)CC6)CSc6ccccc6)c(S(=O)(=O)C(F)(F)F)c5)cc4)CC3)c2)c(-c2ccc(Cl)cc2)n1C(C)C
IC50 (second compound 0.1 µM): > 10000 nM | IC50 (second compound 0.316 µM): > 10000 nM | IC50 (second compound 1 µM): > 10000 nM | IC50 (second compound 3.16 µM): > 10000 nM | IC50 (second compound 10 µM): > 10000 nM | viability, T/C [1]: 116% | viability, T/C [2]: 121% | viability, T/C [3]: 105% | viability, T/C [4]: 111% | viability, T/C [5]: 97.8% | viability, T/C [6]: 67.7% | viability, T/C [7]: 114% | viability, T/C [8]: 110% | viability, T/C [9]: 105% | viability, T/C [10]: 99.9% | viability, T/C [11]: 114% | viability, T/C [12]: 67.8% | viability, T/C [13]: 104% | viability, T/C [14]: 111% | viability, T/C [15]: 96.4% | viability, T/C [16]: 100% | viability, T/C [17]: 105% | viability, T/C [18]: 51.3% | viability, T/C [19]: 109% | viability, T/C [20]: 99.9% | viability, T/C [21]: 101% | viability, T/C [22]: 107% | viability, T/C [23]: 103% | viability, T/C [24]: 55% | viability, T/C [25]: 100% | viability, T/C [26]: 99.2% | viability, T/C [27]: 93.1% | viability, T/C [28]: 110% | viability, T/C [29]: 96.7% | viability, T/C [30]: 61.3%

CCN1C(C(=O)NC23CCC(C(=O)O)(CC2)CC3)C(c2cccc(Cl)c2F)C2(C(=O)Nc3cc(Cl)ccc32)C12CCCCC2 (stereo not given) + Cc1c(S(C)(=O)=O)c(-c2cc(F)cc(N3CCN(c4ccc(NS(=O)(=O)c5ccc(NC(CCN6CCC(C(=O)OCCCP(=O)(O)O)CC6)CSc6ccccc6)c(S(=O)(=O)C(F)(F)F)c5)cc4)CC3)c2)c(-c2ccc(Cl)cc2)n1C(C)C
IC50 (second compound 0.1 µM): 100 nM | IC50 (second compound 0.316 µM): 59.4 nM | IC50 (second compound 1 µM): 83.5 nM | IC50 (second compound 3.16 µM): 54.2 nM | IC50 (second compound 10 µM): 53.9 nM | viability, T/C (second compound 0.1 µM, first compound 0.00949 µM): 106% | viability, T/C (second compound 0.1 µM, first compound 0.03 µM): 92.7% | viability, T/C (second compound 0.1 µM, first compound 0.0949 µM): 49.4% | viability, T/C (second compound 0.1 µM, first compound 0.3 µM): 19.4% | viability, T/C (second compound 0.1 µM, first compound 0.949 µM): 3.79% | viability, T/C (second compound 0.1 µM, first compound 3 µM): 0.58% | viability, T/C (second compound 0.316 µM, first compound 0.00949 µM): 102% | viability, T/C (second compound 0.316 µM, first compound 0.03 µM): 78.1% | viability, T/C (second compound 0.316 µM, first compound 0.0949 µM): 29.7% | viability, T/C (second compound 0.316 µM, first compound 0.3 µM): 11.1% | viability, T/C (second compound 0.316 µM, first compound 0.949 µM): 3.4% | viability, T/C (second compound 0.316 µM, first compound 3 µM): 0.3% | viability, T/C (second compound 1 µM, first compound 0.00949 µM): 104% | viability, T/C (second compound 1 µM, first compound 0.03 µM): 84.6% | viability, T/C (second compound 1 µM, first compound 0.0949 µM): 47.4% | viability, T/C (second compound 1 µM, first compound 0.3 µM): 9.68% | viability, T/C (second compound 1 µM, first compound 0.949 µM): 1.67% | viability, T/C (second compound 1 µM, first compound 3 µM): 0.19% | viability, T/C (second compound 3.16 µM, first compound 0.00949 µM): 94.3% | viability, T/C (second compound 3.16 µM, first compound 0.03 µM): 73.3% | viability, T/C (second compound 3.16 µM, first compound 0.0949 µM): 28% | viability, T/C (second compound 3.16 µM, first compound 0.3 µM): 4.69% | viability, T/C (second compound 3.16 µM, first compound 0.949 µM): 1.19% | viability, T/C (second compound 3.16 µM, first compound 3 µM): 0.17% | viability, T/C (second compound 10 µM, first compound 0.00949 µM): 92.8% | viability, T/C (second compound 10 µM, first compound 0.03 µM): 73.6% | viability, T/C (second compound 10 µM, first compound 0.0949 µM): 27.2% | viability, T/C (second compound 10 µM, first compound 0.3 µM): 4.78% | viability, T/C (second compound 10 µM, first compound 0.949 µM): 1.16% | viability, T/C (second compound 10 µM, first compound 3 µM): 0.26%

CNC(C)C(=O)NC1CN(S(=O)(=O)c2cccc(S(=O)(=O)N3CCC4CCC(C(=O)NC(c5ccccc5)c5ccccc5)N4C(=O)C(NC(=O)C(C)NC)C3)c2)CCC2CCC(C(=O)NC(c3ccccc3)c3ccccc3)N2C1=O (stereo not given) + Cc1c(S(C)(=O)=O)c(-c2cc(F)cc(N3CCN(c4ccc(NS(=O)(=O)c5ccc(NC(CCN6CCC(C(=O)OCCCP(=O)(O)O)CC6)CSc6ccccc6)c(S(=O)(=O)C(F)(F)F)c5)cc4)CC3)c2)c(-c2ccc(Cl)cc2)n1C(C)C
IC50 (second compound 0.1 µM): > 1000 nM | IC50 (second compound 0.316 µM): > 1000 nM | IC50 (second compound 1 µM): > 1000 nM | IC50 (second compound 3.16 µM): > 1000 nM | IC50 (second compound 10 µM): > 1000 nM | viability, T/C (second compound 0.1 µM, first compound 0.00316 µM): 114% | viability, T/C (second compound 0.1 µM, first compound 0.01 µM): 100% | viability, T/C [1]: 103% | viability, T/C [2]: 90.6% | viability, T/C [3]: 96.9% | viability, T/C [4]: 88.1% | viability, T/C (second compound 0.316 µM, first compound 0.00316 µM): 116% | viability, T/C (second compound 0.316 µM, first compound 0.01 µM): 90.5% | viability, T/C [7]: 90.7% | viability, T/C [8]: 84.7% | viability, T/C [9]: 103% | viability, T/C [10]: 86% | viability, T/C (second compound 1 µM, first compound 0.00316 µM): 98.7% | viability, T/C (second compound 1 µM, first compound 0.01 µM): 97% | viability, T/C [13]: 90.4% | viability, T/C [14]: 82% | viability, T/C [15]: 89.3% | viability, T/C [16]: 90.9% | viability, T/C (second compound 3.16 µM, first compound 0.00316 µM): 93.2% | viability, T/C (second compound 3.16 µM, first compound 0.01 µM): 94.2% | viability, T/C [19]: 81% | viability, T/C [20]: 81.5% | viability, T/C [21]: 71.4% | viability, T/C [22]: 83.3% | viability, T/C (second compound 10 µM, first compound 0.00316 µM): 93.2% | viability, T/C (second compound 10 µM, first compound 0.01 µM): 94.7% | viability, T/C [25]: 80.7% | viability, T/C [26]: 79.5% | viability, T/C [27]: 77.4% | viability, T/C [28]: 76.3%
